The conditions of data set [1]: oral dosage form, approximate; cited from earlier work.
For data set [2] the following is noted: 2% stearic acid; for in vitro elution rate: nine pellets, 100 mL PBS at 37° C.; for release rate: about 250 mg API, up to 36 weeks. The text has this:
In one embodiment of the present invention, tizanidine is delivered to the subject at a target range of about 100 micrograms/day to about 10,000 micrograms/day. For example, tizanidine is delivered to the subject at a target range of about 100 to about 5,000 micrograms/day, or about 200 to about 4,000 micrograms per day, or about 300 to about 3,000 micrograms per day or about 400 to about 2,000 micrograms per day. The testing method set forth in the examples to determine the elution rates for compositions comprising tizanidine includes placing the implants in an elution bath consisting of PBS or 0.9% saline at 37° C. Weekly exchanges of the elution media are then analyzed by HPLC for the durations given.
The implants were sterilized by gamma irradiation and placed in an elution bath consisting of 100 mL PBS at 37° C.
A discrete solid dosage form was prepared as follows. The drug implants were manufactured using PEBAX® 2533 and PEBAX® 3533, as the tubing material and tizanidine free base as the API. […] A total of about 250 mg tizanidine free base were loaded into the implant with 10% croscarmellose and 2% stearic acid. The implant were sterilized by gamma irradiation and placed in an elution batch consisting of 200 mL 0.9% saline at 37° C.
A discrete solid dosage form was prepared as follows. Various polyurethanes were used as the tubing material (i.e., TECOFLEX® EG-80A, TECOFLEX® EG-85A, TECOFLEX® EG-93A, TECOPHILIC® HP-60D-05, and TECOPHILIC® HP-60D-10 polyurethanes) and tizanidine hydrochloride as the API. […] A total of about 380 mg tizanidine hydrochloride were loaded into the implant with 10% croscarmellose and 2% stearic acid. The implants were sterilized by gamma irradiation and placed in an elution batch consisting of 200 mL PBS at 37° C. Weekly exchanges of the elution media were analyzed by HPLC over 5 weeks.
The drug implants were manufactured as described in Example 3, except tizanidine free base was used as the API instead of tizanidine HCl. […] A total of about 250 mg tizanidine free base were loaded into the implants with 10% croscarmellose and 2% stearic acid. The implants were sterilized by gamma irradiation and placed in an elution batch consisting of 200 mL PBS at 37° C. Weekly exchanges of the elution media were analyzed by HPLC for up to 36 weeks.

The values that follow come from patent US9011910B2, “Implantable tizanidine compositions and methods of treatment thereof” (Endo Pharmaceuticals Solutions Inc., priority 2011, dated 2015).

Counter-ions that a name gives are not always drawn. Like-named read-outs stand apart in the source and are kept apart here.

Turning to `Clc1ccc2nsnc2c1NC1=NCCN1` [tizanidine HCl, tizanidine hydrochloride], the oral bioavailability in data set [1] is listed as 20-40%. For the same molecule, the “drug release from the implants (elution rate in vitro)” value in data set [2] (all polyurethanes investigated (TECOFLEX EG-80A, EG-85A, EG-93A, TECOPHILIC HP-60D-05, HP-60D-10), about 380 mg API, 10% croscarmellose, 200 mL PBS at 37° C., 5 weeks) is “below 100 μg per day”.

In the case of `Clc1ccc2nsnc2c1NC1=NCCN1` [tizanidine free base, 5-chloro-N-(4,5-dihydro-1H-imidazol-2-yl)benzo[c][1,2,5]thiadiazol-4-amine], the “in vitro elution rate” value was “about 1,200 μg/day” in data set [2] (TECOFLEX EG-80A implant, 5% croscarmellose, 405 mg API, week 2); “about 900 μg/day” in data set [2] (TECOFLEX EG-80A implant, 5% croscarmellose, 405 mg API, week 27); “about 1,400 μg/day” in data set [2] (TECOFLEX EG-80A implant, 15% croscarmellose, 360 mg API, week 2); “about 1,250 μg/day” in data set [2] (TECOFLEX EG-80A implant, 15% croscarmellose, 360 mg API, week 27). Further, the release rate entry is “about 900 μg per day” in data set [2] (TECOFLEX EG-80A implant, 10% croscarmellose, 200 mL PBS at 37° C.) and “about 100 μg per day” in data set [2] (TECOFLEX EG-93A implant, 10% croscarmellose, 200 mL PBS at 37° C.).
